Values of other authors in patent publication US20070148100A1 (priority 2005, published 2007).

Assays:
5-HT2A receptor = 5-HT2A receptor (Homo sapiens, UniProt P28223)
[1] = test system: cholinergic muscarinic receptors
[2] = test system: alpha-adrenergic receptors
5-HT1A receptor = biological target: T1, 5-HT1A receptor (Homo sapiens, UniProt P08908)
T1 sequence (P08908 1-422): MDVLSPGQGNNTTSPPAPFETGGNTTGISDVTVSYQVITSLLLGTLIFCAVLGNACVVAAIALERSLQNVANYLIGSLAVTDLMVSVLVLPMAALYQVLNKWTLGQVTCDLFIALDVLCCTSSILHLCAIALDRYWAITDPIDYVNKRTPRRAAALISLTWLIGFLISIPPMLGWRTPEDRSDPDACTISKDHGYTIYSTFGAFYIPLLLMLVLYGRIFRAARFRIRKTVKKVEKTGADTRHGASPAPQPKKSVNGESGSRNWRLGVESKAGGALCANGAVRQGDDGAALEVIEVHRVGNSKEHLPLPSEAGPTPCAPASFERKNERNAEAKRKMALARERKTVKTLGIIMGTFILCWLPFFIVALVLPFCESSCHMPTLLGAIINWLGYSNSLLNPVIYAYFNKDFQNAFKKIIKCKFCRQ

Sequence of 5-HT2A receptor (P28223 whole entry): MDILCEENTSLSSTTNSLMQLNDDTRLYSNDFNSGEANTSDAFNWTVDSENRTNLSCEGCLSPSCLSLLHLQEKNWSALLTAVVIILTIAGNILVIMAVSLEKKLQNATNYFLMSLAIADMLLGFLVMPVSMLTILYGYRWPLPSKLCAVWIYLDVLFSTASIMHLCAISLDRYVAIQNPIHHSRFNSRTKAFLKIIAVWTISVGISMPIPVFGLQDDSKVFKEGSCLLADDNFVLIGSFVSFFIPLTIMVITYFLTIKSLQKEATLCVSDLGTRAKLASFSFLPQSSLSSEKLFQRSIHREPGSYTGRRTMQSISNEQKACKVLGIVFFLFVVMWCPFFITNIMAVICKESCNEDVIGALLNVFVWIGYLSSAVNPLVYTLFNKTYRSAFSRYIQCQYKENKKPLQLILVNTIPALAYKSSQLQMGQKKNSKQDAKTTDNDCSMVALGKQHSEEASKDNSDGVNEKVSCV

SMILES: O=C1CCc2ccc(OCCCCN3CCN(c4cccc(Cl)c4Cl)CC3)cc2N1 [Aripiprazole, 7-[4-[4-(2,3-dichlorophenyl)-1-piperazinyl]butoxy]-3,4-dihydrocarbostyril]
- elimination half-life (in vivo): approximately 75 hours
- kinetics (linearity) (in vivo): linear kinetics
- bioavailability (oral tablets): about 90%
- affinity for histamine receptors (histamine receptors): moderate affinity
- activity at the 5-HT2A receptor (5-HT2A receptor): antagonist profile
- affinity for cholinergic muscarinic receptors [1]: no appreciable affinity
- affinity for alpha-adrenergic receptors [2]: moderate affinity
- activity at the 5-HT1A receptor (5-HT1A receptor): partial agonist
